The values that follow come from patent US20160367685A1, “DUPA-INDENOISOQUINOLINE CONJUGATES” (PURDUE RESEARCH FOUNDATION, priority 2013, published 2016).

Each structure is given as a SMILES string. “Also recorded” adds a separate entry of the source. Read-outs that look alike come from different tables or passages of the source.

Data set [1] concerns NCI panel of 60 human cancer cell lines. In words: Cytotoxicity mean-graph midpoint in NCI panel of 60 cancer cell lines. The class given is cell-based. The settings on record: for MGM (μM), cytotoxicity mean-graph midpoint: approximate average of GI50 across the panel.
The target of data set [2] is T1, Top1 (Homo sapiens, UniProt P11387).
T1 sequence (P11387 1-765): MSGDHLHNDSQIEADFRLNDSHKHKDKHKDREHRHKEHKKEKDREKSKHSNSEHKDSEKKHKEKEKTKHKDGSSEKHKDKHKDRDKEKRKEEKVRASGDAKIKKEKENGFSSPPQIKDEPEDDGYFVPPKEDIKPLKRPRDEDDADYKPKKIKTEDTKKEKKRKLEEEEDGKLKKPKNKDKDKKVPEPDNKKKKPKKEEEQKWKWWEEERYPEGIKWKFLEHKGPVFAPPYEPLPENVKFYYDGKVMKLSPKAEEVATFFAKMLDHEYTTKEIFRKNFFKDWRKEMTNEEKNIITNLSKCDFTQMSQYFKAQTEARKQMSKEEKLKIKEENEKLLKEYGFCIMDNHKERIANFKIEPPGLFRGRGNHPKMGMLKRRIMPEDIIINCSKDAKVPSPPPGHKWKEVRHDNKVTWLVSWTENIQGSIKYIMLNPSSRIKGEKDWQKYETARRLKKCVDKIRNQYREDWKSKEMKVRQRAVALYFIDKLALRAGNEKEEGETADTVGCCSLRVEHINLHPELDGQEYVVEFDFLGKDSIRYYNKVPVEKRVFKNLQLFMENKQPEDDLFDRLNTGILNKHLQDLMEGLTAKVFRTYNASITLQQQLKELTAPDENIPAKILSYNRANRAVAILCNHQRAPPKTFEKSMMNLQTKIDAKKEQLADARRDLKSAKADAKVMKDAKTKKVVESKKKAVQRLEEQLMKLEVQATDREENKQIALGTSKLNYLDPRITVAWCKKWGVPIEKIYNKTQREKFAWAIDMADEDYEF
In words: Top1-mediated DNA cleavage assay. The class given is biochemical. Also on record: key: 0: no inhibitory activity; +: between 20% and 50% activity; ++: between 50% and 75% activity; +++: between 75% and 95% activity; ++++: equipotent; +++++: more potent. Conditions: graded relative to 1 μM camptothecin.

Data set [3] concerns LNCap cell cultures. The data set can be described thus: Cytotoxicity in LNCap cell cultures. The settings on record: LNCap cell cultures (FIG. 3). The class given is cell-based. An excerpt: The excellent cytotoxicities of the DUPA conjugates served as an indication that the disulfide reduction and conversion of the intermediates to the base drugs (6 and 18) are occurring intracellularly. Although an increase in potency has not been observed yet, this encouraging result partially supported our initial hypothesis, and urged further optimization of the peptide linker to facilitate the drug releasing mechanism.

Data set [4] can be described thus: Water solubility at room temperature. The class given is physicochemical.
The subject of data set [5] is 22RV1 cells. In words: cells. The class given is cell-based, human. As to the method: 22RV1 cells were seeded in 24-well (50000 cells/well) Falcon plates and allowed to form monolayers over a period of 24-48 h. The old medium was replaced with fresh medium (0.5 mL) containing increasing concentrations of drug (either targeted or non-targeted) and cells were incubated for an additional 2 h and 24 h (in the case of targeted drug) at 37° C. Cells were washed (3×0.5 mL) with fresh medium and incubated in fresh medium (0.5 mL) for another 66 h at 37° C. The spent medium in each well was replaced with fresh medium (0.5 mL) containing [^3H]-thymidine (1 mCi/mL), and the cells were incubated for additional 4 h at 37° C. to allow [^3H]-thymidine incorporation. The cells were then washed with medium (2×0.5 mL) and treated with 5% trichloroacetic acid (0.5 mL) for 10 min at room temperature. The trichloroacetic acid was replaced with 0.25 N NaOH (0.5 mL) and the cells were transferred to individual scintillation vials containing Ecolume scintillation cocktail (3.0 mL), mixed well to form homogeneous liquid, and counted in a liquid scintillation analyzer. IC50 values were calculated by plotting %[^3H]-thymidine incorporation versus log concentration of drugs (targeted and non-targeted) using in GraphPad Prism 4.
The IC50 value of the indenoisoquinoline 18 itself was 2.0 nM when determined after a 2 h incubation. […] An increase in potency of 86 relative to 18 was not observed. […] However, the potential value of the conjugate 86 is lack of cytotoxicity in “normal” cells, which would result in 86 being a less toxic anticancer drug.

The subject of data set [6] is 22RV1 tumors. The data set can be described thus: 22RV1 xenograft-bearing mice therapy study. Conditions: for tumor growth during the treatment period: alternate days; for tumor growth during the treatment period / toxicity to the animals: 3 days/week for 3 weeks; for toxicity to the animals / body weight during the treatment period: 40 nmol/mouse IP; for body weight during the treatment period: live mice, 3 days/week for 3 weeks (FIG. 6).

Data set [7] has as its system PSMA. The settings on record: PSMA ligand, literature value; cited from earlier work.
Where [8] appears, read: Table 1, average of two determinations.

Turning to `Cl.NCCCn1c2c(c3ccc([N+](=O)[O-])cc3c1=O)C(=O)c1cc3c(cc1-2)OCO3` [Compound 16, 6-(3-Aminopropyl)-5,6-dihydro-8,9-methylenedioxy-3-nitro-5,11-dioxo-11H-indeno[1,2-c]isoquinoline Hydrochloride], in data set [1] (setting [8]), the “MGM (μM), cytotoxicity mean-graph midpoint” value (from here on “MGM (μM)”) stood at 0.090 µM. Further, the Top1 inhibitory activity entry in data set [2] (Table 1) is reported as “++++”.
For `COc1cc2c3c(n(CCCN4CCOCC4)c(=O)c2cc1OC)-c1cc2c(cc1C3=O)OCO2` [drawing 73], the “MGM (μM)” value in data set [1] (Table 2) came to 0.079 µM. Also, the “Top1 inhibitory activity” value in data set [2] (Table 2) is reported as “++++”.
As for `COc1cc2c3c(n(CCCN4CCOCC4)c(=O)c2cc1OC)-c1cc(OC)c(OC(=O)OCCSSC[C@H](NC(=O)[C@H](CC(=O)O)NC(=O)[C@@H](N)CNC(=O)[C@H](Cc2ccccc2)NC(=O)[C@H](Cc2ccccc2)NC(=O)CCCCCCCNC(=O)CC[C@H](NC(=O)N[C@@H](CCC(=O)O)C(=O)O)C(=O)O)C(=O)O)cc1C3=O` [Compound 86, (8R,11S,14S,18S,21S,35S,39S)-14-Amino-18,21-dibenzyl-11-(carboxymethyl)-1,10,13,17,20,23,32,37-octaoxo-1-((2,3,8-trimethoxy-6-(3-morpholinopropyl)-5,11-dioxo-6,11-dihydro-5H-indeno[1,2-c]isoquinolin-9-yl)oxy)-2-oxa-5,6-dithia-9,12,16,19,22,31,36,38-octaazahentetracontane-8,35,39,41-tetracarboxylic Acid], the cytotoxicities result in data set [3] is “low nanomolar range”. Besides, the solubility in water entry in data set [4] was “dissolved easily”; in data set [4] (listed as 30), “dissolve completely and easily”. The concentration for half-maximal inhibition (IC50) in data set [5] (24-hour incubation, read-out: IC50) was 11.4 nM; in data set [5] (2 h incubation) it was “no activity”. Besides, in data set [6] (40 nmol/mouse (2.0 μmol/kg) IP, 5 mice per group), the “deaths of animals during the treatment period” value is given as “not lethal; also recorded: no deaths”. Moreover, the “tumor growth during the treatment period” value in data set [6] (40 nmol/mouse (2.0 μmol/kg) IP) is “cessation of tumor growth”. Moreover, the “toxicity to the animals” value in data set [6] is “non-toxic”. Also, the “antitumor activity in competition group” value in data set [6] (86 at 40 nmol/mouse IP plus PSMA competitor 28 in 10-fold excess) is “complete loss of activity”. For the same compound, in data set [6], the “body weight during the treatment period” value is given as “retained their normal body weights”.
With `NCCCn1c2c(c3ccc([N+](=O)[O-])cc3c1=O)C(=O)c1cc3c(cc1-2)OCO3`, in data set [1] (Table 2), the “MGM (μM)” value is 0.090 µM. Besides, the “Top1 inhibitory activity” value in data set [2] (Table 2) is recorded as “++++”.
For `NCCCn1c2c(c3ccc(Br)cc3c1=O)C(=O)c1cc3c(cc1-2)OCO3` the same measures were 0.329 µM and “++++”.
For the compound `O=C(O)CCC(NC(=O)NC(CCC(=O)O)C(=O)O)C(=O)O` (stereo not drawn) [DUPA, 2-[3-(1,3-Dicarboxypropyl)-Ureido]Pentanedioic Acid], in data set [7], the IC50 was 47 nM and the Ki was 8 nM.
Consider `COc1ccc2c(c1)C(=O)c1c-2n(CCCNCCO)c(=O)c2cc([N+](=O)[O-])ccc12` [Compound 15], for which the “MGM (μM)” value in data set [1] (setting [8]) was 0.016 µM. In data set [2] (Table 1), the Top1 inhibitory activity entry was “++++”.
In the case of `COc1cc2c3c(n(CCCN4CCOCC4)c(=O)c2cc1OC)-c1cc2c(cc1C3=O)OCO2` [drawing 72], the “MGM (μM)” value in data set [1] (Table 2) was 4.64 µM. In addition, the “Top1 inhibitory activity” value in data set [2] (Table 2) is reported as “++++”.
For `COc1ccc2c(c1)C(=O)c1c-2n(CCCN)c(=O)c2cc([N+](=O)[O-])ccc12` [Compound 6], the “MGM (μM)” value in data set [1] (setting [8]) amounted to 0.047 µM. Besides, the cytotoxicities entry in data set [3] was “low nanomolar range”. Moreover, the Top1 inhibitory activity result in data set [2] (Table 1) was “++++”.
Consider `Br.COc1cc2c(cc1O)C(=O)c1c-2n(CCCn2ccnc2)c(=O)c2cc([N+](=O)[O-])ccc12` [Compound 14, 6-(3-(1H-Imidazol-1-yl)propyl)-9-hydroxy-8-methoxy-3-nitro-5H-indeno[1,2-c]isoquinoline-5,11(6H)-dione hydrobromide], for which the “MGM (μM)” value in data set [1] (setting [8]) stood at 0.019 µM. Besides, in data set [2] (Table 1), the Top1 inhibitory activity result is “+ (between 20% and 50% activity)”.
For the compound `COc1ccc2c(c1)C(=O)c1c-2n(CCCNC(=O)OCCSSC[C@H](NC(=O)[C@H](CC(=O)O)NC(=O)[C@@H](N)CNC(=O)[C@H](Cc2ccccc2)NC(=O)[C@H](Cc2ccccc2)NC(=O)CCCCCCCNC(=O)CC[C@H](NC(=O)N[C@@H](CCC(=O)O)C(=O)O)C(=O)O)C(=O)O)c(=O)c2cc([N+](=O)[O-])ccc12` [Compound 84, (12R,15S,18S,22S,25S,39S,43S)-18-Amino-22,25-dibenzyl-15-(carboxymethyl)-1-(9-methoxy-3-nitro-5,11-dioxo-5,11-dihydro-6H-indeno[1,2-c]isoquinolin-6-yl)-5,14,17,21,24,27,36,41-octaoxo-6-oxa-9,10-dithia-4,13,16,20,23,26,35,40,42-nonaazapentatetracontane-12,39,43,45-tetracarboxylic acid], the cytotoxicities result in data set [3] is “low nanomolar range”. The solubility in water result in data set [4] was “dissolve completely and easily”.
As to `Br.COc1cc2c(cc1O)C(=O)c1c-2n(CCCN2CCOCC2)c(=O)c2cc([N+](=O)[O-])ccc12` [Compound 13, 9-Hydroxy-8-methoxy-6-(3-morpholinopropyl)-3-nitro-5H-indeno[1,2-c]isoquinoline-5,11(6H)-dione hydrobromide], in data set [1] (setting [8]), the “MGM (μM)” value is 0.021 µM. For the same compound, the Top1 inhibitory activity result in data set [2] (Table 1) is “++ (between 50% and 75% activity)”.
On to `COc1cc2c(cc1O)C(=O)c1c-2n(CCCN2CCOCC2)c(=O)c2cc(OC)c(OC)cc12` [Compound 18], for which the GI50 in data set [1] (Homo sapiens, NCI's panel of 60 cancer cell lines, read-out: cytotoxicity mean-graph midpoint (MGM) GI50 value) worked out at 87 nM. Also, the cytotoxicities result in data set [3] is reported as “low nanomolar range”. Moreover, in data set [5] (Homo sapiens, 2 h incubation, read-out: IC50), the IC50 worked out at 2 nM. In addition, the Top1 inhibitory activity entry in data set [2] is “+++++”. In addition, the “tumor growth during the treatment period” value in data set [6] (40 nmol/mouse (2.0 μmol/kg) IP) is on record as “regression of tumor growth”. Further, in data set [6], the “toxicity to the animals” value was “toxic” and the “body weight during the treatment period” value is “retained their normal body weights”.
For `Br.COc1cc2c(cc1O)C(=O)c1c-2n(CCCN)c(=O)c2cc([N+](=O)[O-])ccc12` [Compound 12, 6-(3-Aminopropyl)-9-hydroxy-8-methoxy-3-nitro-5H-indeno[1,2-c]isoquinoline-5,11(6H)-dione hydrobromide], the “MGM (μM)” value in data set [1] (setting [8]) worked out at 0.019 µM. Moreover, the Top1 inhibitory activity result in data set [2] (Table 1) was “++ (between 50% and 75% activity)”.

Usually IC50 stands for the point on the concentration scale where inhibition reaches its midpoint. A word on the Ki: it is the dissociation constant of the complex between target and ligand, obtained from inhibition or displacement. One may read the GI50 as the concentration that inhibits growth by half.
